# In patent US7148215B2, “Chemical compounds” (Aventis Pharma S.A., priority 2001, dated 2006):
# Counter-ions that a name gives are not always drawn.
# Test system: not given
# Assay: not given
# Details: not given
row,Structure (SMILES),melting point
1,N#Cc1c(C(N)=O)c2n(c1C(F)(F)F)CCN(C(=O)Nc1ccc(C(F)(F)F)cc1)C2,243 to 246 °C (dec.)
2,NC(=O)c1c(Cl)c(-c2ccccc2)n2c1CN(C(=O)Cc1ccccc1O)CC2,176 to 180 °C
3,NC(=O)c1c(Cl)c(-c2ccccc2)n2c1CN(C(=O)Nc1cccnc1)CC2,261 to 263 °C
4,N#Cc1ccc(NC(=O)N2CCn3c(c(C(N)=O)c(C#N)c3-c3cccnc3)C2)cc1,291 to 296 °C
5,N#Cc1c(C(N)=O)c2n(c1C1CC1)CCN(C(=O)Nc1ccc(C(=O)NCCN3CCOCC3)cc1)C2,197 to 199 °C
6,NC(=O)c1c(Cl)cn2c1CN(C(=O)Nc1ccc(F)cc1)CC2,229 to 231 °C
7,COc1ccc(NC(=O)N2CCn3c(-c4ccccc4)cc(C(N)=O)c3C2)cc1,170 to 173 °C
8,N#Cc1c(C(N)=O)c2n(c1C1CC1)CCN(S(=O)(=O)c1ccc(C(F)(F)F)cc1)C2,253 to 256 °C
9,N#Cc1ccc(NC(=O)N2CCn3c(c(C(N)=O)c(Cl)c3C3CC3)C2)cc1,196 to 198 °C
10,"N#Cc1c(C(N)=O)c2n(c1C1CC1)CCN(C(=O)Nc1ccc(F)cc1)C2 [Example 9(a), 7-Cyano-6-cyclopropyl-3,4-dihydro-1H-pyrrolo[1,2-a]pyrazine-2,8-dicarboxylic acid 8-amide 2-[(4-fluorophenyl)amide]]",232 to 234 °C
11,Cc1ccc(-c2c(Cl)c(C(N)=O)c3n2CCN(C(=O)Nc2ccc(F)cc2)C3)cn1,235 to 238 °C (dec.)
12,COc1ccc(N/C(=N\C#N)N2CCn3c(c(C(N)=O)c(Cl)c3-c3ccccc3)C2)cc1,170 °C
13,NC(=O)c1c(Cl)c(C2CC2)n2c1CN(C(=O)Nc1ccc(F)cc1)CC2 [Example 16(a)],230 to 231 °C
14,N#Cc1c(C(N)=O)c2n(c1-c1cccnc1)CCN(C(=O)Nc1ccc(F)cc1)C2,275 to 279 °C
15,N#Cc1c(C(N)=O)c2n(c1C1CC1)CCN(C(=O)Nc1ccc(C(F)(F)F)nc1)C2,149 to 153 °C
16,NC(=O)c1c(Cl)c(-c2cccnc2)n2c1CN(S(=O)(=O)c1ccc(C(F)(F)F)cc1)CC2,205 to 206 °C
17,NC(=O)c1c(Cl)c(-c2ccccc2)n2c1CN(C(=O)CCC1CCCCC1)CC2,181 to 182 °C
18,NC(=O)c1c(Cl)cn2c1CN(S(=O)(=O)c1ccc(-c3ccccn3)s1)CC2,213 to 214 °C
19,N#Cc1c(C(N)=O)c2n(c1-c1ccccc1)CCN(C(=O)Nc1ccc(C(=O)O)cc1)C2,286 to 288 °C
20,NC(=O)c1c(Cl)c(C2CC2)n2c1CNCC2 (as salt: trifluoroacetic acid salt),237 to 239 °C

# The next lines start with the values.
row,melting point,Structure (SMILES)
1,296 to 298 °C (dec.),N#Cc1c(C(N)=O)c2n(c1C1CCOCC1)CCN(C(=O)Nc1ccc3ncccc3c1)C2
2,246 to 248 °C,COc1ccc(NC(=O)N2CCn3c(c(C(N)=O)c(Cl)c3-c3ccccc3)C2)cc1
3,221 to 222 °C,Cc1ccc(-c2c(Cl)c(C(N)=O)c3n2CCN(C(=O)Nc2ccc4ncccc4c2)C3)cn1
4,229 to 231 °C,Cc1c(Cl)c(C(N)=O)c2n1CCN(C(=O)Nc1cccc(F)c1)C2
5,196 to 198 °C,NC(=O)c1c(Cl)c(-c2ccccc2)n2c1CN(C(=O)Oc1ccccc1)CC2
6,219 to 220 °C,N#Cc1c(C(N)=O)c2n(c1-c1ccccc1)CCN(C(=O)Nc1cccc(F)c1)C2
7,200 to 202 °C (dec.),N#Cc1c(C(N)=O)c2n(c1C1CCOCC1)CCN(C(=O)Nc1cccc(C(F)(F)F)c1)C2
8,177 to 180 °C,CS(=O)(=O)N1CCC(c2c(C#N)c(C(N)=O)c3n2CCN(C(=O)Nc2ccc(F)cc2)C3)CC1
9,266 to 267 °C,NC(=O)c1c(Cl)c(C2CC2)n2c1CN(C(=O)Nc1ccc(F)cc1)CC2 [Example 3]
10,240 to 242 °C,NC(=O)c1c(Cl)c(-c2ccccc2)n2c1CN(S(=O)(=O)c1cccs1)CC2
11,207 to 208 °C,NC(=O)c1c(Cl)c(-c2ccccc2)n2c1CN(S(=O)(=O)Nc1ccccc1)CC2
12,176 to 178 °C,COc1ccc(NC(=S)N2CCn3c(c(C(N)=O)c(Cl)c3-c3ccccc3)C2)cc1
13,218 to 221 °C,CS(=O)(=O)N1CCC(c2c(C#N)c(C(N)=O)c3n2CCN(C(=O)Nc2ccc(C#N)cc2)C3)CC1
14,249 to 250 °C,NC(=O)c1c(Cl)cn2c1CN(C(=O)Nc1ccc(-c3ccccn3)s1)CC2

# Test system: rat cerebellar granule neurons
# Assay: Effect of JNK inhibitors on LY294002-induced cytotoxicity in cerebellar granule cells (MTT)
# Type: cell-based
# Details: 3–100 μM added to cells cultured in high potassium medium; FIG. 1
# Description: 7. Effect of JNK Inhibitors on Cytotoxicity in Cerebellar Granule Cells
# LY294002 is a reversible inhibitor of PI3K and activates JNKs with subsequent cell death. We have investigated the ability of the JNK inhibitors to protect against LY294002-induced cell death in a cerebellar granule cell preparation.
# Primary cerebellar cell cultures were prepared from 7-day-old Sprague-Dawley rats. Cerebella were carefully collected, dissected free of meninges and cut into 5–7 parts. Tissues were gently mechanically dissociated after digestion with VERSENE (5 minutes, 37° C.). The cells were seed onto 96-well plates pre-coated with poly-D-lysine (Becton-Dickinson) at a final density of 10^5 cells per well. Cultures were maintained at 37° C. in a humidified atmosphere with 5% CO2 and used after the 9th day of culture in DMEM medium complemented with 5% fetal calf serum, 5% horse serum and 30 mM potassium chloride in the presence of an anti-mitotic (10 μM cytosine arabinoside). The drugs were directly added to the culture at the indicated concentrations for 24 hours. Neuronal viability was assessed quantitatively by the colorimetric measurement of Mosmann or MTT assay (1983, J. Immunol. Methods, 65, 55–63). Each condition was tested in sextuplicate or triplicate and the mean values obtained analyzed statistically by one-way ANOVA, followed by Dunnett's multiple comparison test. […]
row,Structure (SMILES),neurotoxic effect on cerebellar granule neurons
1,"O=c1cc(N2CCOCC2)oc2c(-c3ccccc3)cccc12 [LY294002, reference compound]",induced neuronal death

# Same assay, conditions: Neuron; LY294002 30 μM; rat cerebellar granule cells after 9 days of culture; 24 hours; MTT; FIG. 2; read-out: protection against LY294002-induced toxicity, IC50
row,Structure (SMILES),IC50
1,"N#Cc1c(C(N)=O)c2n(c1C1CC1)CCN(C(=O)Nc1ccc(F)cc1)C2 [Example 9(a), 7-Cyano-6-cyclopropyl-3,4-dihydro-1H-pyrrolo[1,2-a]pyrazine-2,8-dicarboxylic acid 8-amide 2-[(4-fluorophenyl)amide]]",7 µM
